Source: patent US9604960B2, “Aryl, heteroaryl, and heterocycle substituted tetrahydroisoquinolines and use thereof” (Albany Molecular Research, Inc., priority 2009, dated 2017)
pIC50: −log10 of the molar value.

Tests used:
hDAT = hDAT (Homo sapiens (Human), UniProt Q01959); experiment: DAT radioligand binding assay ([125I]RTI-55); conditions: (+)-enantiomers; membranes of HEK-293 cells expressing hDAT
Description: Recombinant HEK-293 cells expressing either the hSERT, hDAT, or hNET proteins were harvested from T-175 flasks as follows. The medium was removed from the flasks and the cells rinsed with HBSS without Ca and without Mg. The cells were then incubated for 5-10 minutes in 10 mM Tris-Cl, pH 7.5, 5 mM EDTA before the cells were lifted with a combination of pipetting and scraping, as needed. The cell suspension was collected into centrifuge bottles and homogenized for 30 seconds with a Polytron homogenizer. The suspension was centrifuged for 30 minutes at 32,000×g, 4° C. The supernatant was decanted and the pellet resuspended and homogenized in 50 mM Tris-Cl, pH 7.5, 1 mM EDTA for 10 seconds. […]
(§1) Compounds were dissolved in 100% DMSO at a concentration 100 times the desired highest assay concentration, serially diluted 1:3 in 100% DMSO, and 0.4 μl/well of each solution was dispensed to a Nunc polypropylene, round bottom, 384-well plate. […] The plates were air-dried overnight, 12 μl/well of MicroScint scintillation fluid added, and the plates counted in a Trilux.
The raw data was normalized to percent inhibition using control wells defining 0% (DMSO only) and 100% (selective inhibitor) inhibition which were run on each plate. […] The radioligand concentration chosen for each assay corresponds to the Kd concentration determined through saturation binding analysis for each assay.

hSERT = hSERT (Homo sapiens (Human), UniProt P31645); experiment: SERT radioligand binding assay ([125I]RTI-55); conditions: (+)-enantiomers; membranes of HEK-293 cells expressing hSERT
Chain of hSERT (P31645 whole entry): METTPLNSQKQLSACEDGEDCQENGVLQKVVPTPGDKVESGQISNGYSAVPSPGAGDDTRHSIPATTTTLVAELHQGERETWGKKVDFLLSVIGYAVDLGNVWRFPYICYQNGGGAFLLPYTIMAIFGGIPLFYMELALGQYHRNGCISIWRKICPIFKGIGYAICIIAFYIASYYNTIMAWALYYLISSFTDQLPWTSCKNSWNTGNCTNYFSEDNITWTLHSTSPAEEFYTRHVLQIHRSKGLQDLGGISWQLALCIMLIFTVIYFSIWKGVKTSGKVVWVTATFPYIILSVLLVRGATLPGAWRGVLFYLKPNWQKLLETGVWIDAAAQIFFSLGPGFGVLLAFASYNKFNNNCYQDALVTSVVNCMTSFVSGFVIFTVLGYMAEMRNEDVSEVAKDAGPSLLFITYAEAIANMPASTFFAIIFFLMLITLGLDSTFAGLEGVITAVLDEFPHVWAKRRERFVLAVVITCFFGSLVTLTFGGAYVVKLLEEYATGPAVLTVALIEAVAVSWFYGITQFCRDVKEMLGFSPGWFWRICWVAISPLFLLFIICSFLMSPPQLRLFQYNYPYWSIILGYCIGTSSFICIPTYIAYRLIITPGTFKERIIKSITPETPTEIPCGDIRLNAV
Description: The medium was removed from the flasks and the cells rinsed with HBSS without Ca and without Mg. The cells were then incubated for 5-10 minutes in 10 mM Tris-Cl, pH 7.5, 5 mM EDTA before the cells were lifted with a combination of pipetting and scraping, as needed. The cell suspension was collected into centrifuge bottles and homogenized for 30 seconds with a Polytron homogenizer. The suspension was centrifuged for 30 minutes at 32,000×g, 4° C. The supernatant was decanted and the pellet resuspended and homogenized in 50 mM Tris-Cl, pH 7.5, 1 mM EDTA for 10 seconds. The suspension was then centrifuged again for 30 minutes at 32,000×g, 4° C. The supernatant was decanted and the pellet resuspended in 50 mM Tris-Cl, pH 7.5, 1 mM EDTA and briefly homogenized. A Bradford assay (Bio-rad) was performed and the membrane preparation diluted to 2 mg/ml with 50 mM Tris-Cl, pH 7.5, 1 mM EDTA. Aliquots were prepared, and then frozen and stored at −80° C.
as §1, with “Trilux. […]” for “Trilux.”

Male Swiss Webster mice = experiment: Mouse tail suspension assay; format: in vivo; conditions: acute administration, immobility
Description: Male Swiss Webster mice were housed 3-4 per cage in rooms maintained at a constant temperature (21-23° C.) and humidity (50±10%) on a 12-hour light/dark cycle. Animals had ad libitum access to water and food throughout studies. On the day of testing, they were brought into the testing room and allowed to acclimate for one hour. To begin testing, the tail was attached to a piece of tape which is then attached to a hook on the ceiling of a sound-attenuated chamber. Immobility was automatically recorded using the Med Associates software. Compounds were administered acutely at a fixed pretreatment interval before session.

Chain of hDAT (Q01959 whole entry): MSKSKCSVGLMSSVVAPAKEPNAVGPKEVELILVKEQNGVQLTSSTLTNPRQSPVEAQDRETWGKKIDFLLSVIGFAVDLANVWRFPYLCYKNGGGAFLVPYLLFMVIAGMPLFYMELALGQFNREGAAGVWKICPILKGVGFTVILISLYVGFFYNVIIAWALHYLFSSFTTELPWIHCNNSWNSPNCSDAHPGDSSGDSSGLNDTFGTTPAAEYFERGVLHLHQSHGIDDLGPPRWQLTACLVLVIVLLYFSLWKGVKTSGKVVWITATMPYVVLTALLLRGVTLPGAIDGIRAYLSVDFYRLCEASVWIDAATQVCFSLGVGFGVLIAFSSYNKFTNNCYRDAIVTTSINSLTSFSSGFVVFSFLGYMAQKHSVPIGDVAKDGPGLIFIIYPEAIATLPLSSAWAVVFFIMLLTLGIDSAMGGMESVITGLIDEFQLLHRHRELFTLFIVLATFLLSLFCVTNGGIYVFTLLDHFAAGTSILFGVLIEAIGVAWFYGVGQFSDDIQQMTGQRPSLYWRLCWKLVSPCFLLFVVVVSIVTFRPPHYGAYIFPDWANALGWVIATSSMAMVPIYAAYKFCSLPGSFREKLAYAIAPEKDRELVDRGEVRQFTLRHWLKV

Row | Compound | pIC50 (hDAT) | pIC50 (hSERT) | minimum effective dose in the mouse tail suspension study (Male Swiss Webster mice) [mg/kg]
1 | CC1(C)NCC(c2ccc(Cl)c(Cl)c2)c2ccc(-c3ccc(C(F)(F)F)nn3)cc21 (single isomer, unassigned) [Example 10, 4-(3,4-dichlorophenyl)-7-(6-(trifluoromethyl)pyridazin-3-yl)-1,1-dimethyl-1,2,3,4-tetrahydroisoquinoline] | 7.55 | 7.59 | 
2 | Clc1ccc(C2CNCc3cc(-c4ccc5ncnn5c4)ccc32)cc1Cl (stereo not drawn) [Example 36, 7-([1,2,4]triazolo[1,5-a]pyridin-6-yl)-4-(3,4-dichlorophenyl)-1,2,3,4-tetrahydroisoquinoline] |  |  | 10
